In patent US9833497B2, “Human originated EGF domain proteins and use of the same” (CHENGDU SOURCEBIO LIMITED-LIABILITY COMPANY, priority 2013, dated 2017):

What was measured:
Assay type in all cases: cell-based
Pseudomonas aeruginosa = assay: MIC against Gram-negative bacteria: Pseudomonas aeruginosa; conditions: 5×10^5 CFU/mL
Procedure, shortened: (§1)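 Growth inhibition by human EGF domain proteins was scored in LB liquid culture seeded at 5×10^5 CFU/mL. Protein was applied as a two-fold dilution series in triplicate, with shaking incubation at 37° C; MIC is the lowest concentration giving no growth.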

Moraxella catarrhalis = assay: MIC against Gram-negative bacteria: Moraxella catarrhalis; conditions: 5×10^5 CFU/mL
Procedure, shortened: as §1

E. coli BL21 = assay: MIC against Gram-negative bacteria: E. coli BL21; conditions: 5×10^5 CFU/mL
Procedure, shortened: as §1

Proteus vulgaris = assay: MIC against Gram-negative bacteria: Proteus vulgaris; conditions: 5×10^5 CFU/mL
Procedure, shortened: as §1

Aeromonas hydrophila = assay: MIC against Gram-negative bacteria: Aeromonas hydrophila; conditions: 5×10^5 CFU/mL
Procedure, shortened: as §1

E. coli DH5α = assay: Antibacterial activity: MIC and growth curve against E. coli DH5α in 96-well plate; conditions: minimal inhibitory concentration against E. coli DH5α; 96-well plate, 5×10^5 CFU/mL, 37° C., judged after 8 h
Procedure, shortened: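 MIC taken as lowest protein level with no bacterial growth, tracked by A600 every 30 min during 37 °C, 175 rpm culture. Two-fold protein series 50-12.5 μg/mL final, triplicate wells, against 5×10^5 CFU/mL of LB-washed mid-log cells.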

Proteus mirabilis = assay: MIC against Gram-negative bacteria: Proteus mirabilis; conditions: 5×10^5 CFU/mL
Procedure, shortened: as §1

Klebsiella pneumonia = assay: MIC against Gram-negative bacteria: Klebsiella pneumonia; conditions: 5×10^5 CFU/mL
Procedure, shortened: as §1

Serratia marcescens = assay: MIC against Gram-negative bacteria: Serratia marcescens; conditions: 5×10^5 CFU/mL
Procedure, shortened: as §1

Citrobacter diversus = assay: MIC against Gram-negative bacteria: Citrobacter diversus; conditions: 5×10^5 CFU/mL
Procedure, shortened: as §1

Enterobacter cloacae = assay: MIC against Gram-negative bacteria: Enterobacter cloacae; conditions: 5×10^5 CFU/mL
Procedure, shortened: as §1

[1] = P. aeruginosa, 10 h cultivation at 37° C.
[2] = M. catarrhalis, 10 h cultivation at 37° C.
[3] = E. coli BL21, 10 h cultivation at 37° C.
[4] = P. vulgaris, 10 h cultivation at 37° C.
[5] = A. hydrophila, 10 h cultivation at 37° C.
[6] = P. mirabilis, 10 h cultivation at 37° C.
[7] = K. pneumonia, 10 h cultivation at 37° C.
[8] = S. marcescens, 10 h cultivation at 37° C.
[9] = C. diversus, 10 h cultivation at 37° C.
[10] = E. cloacae, 10 h cultivation at 37° C.
[11] = Pseudomonas aeruginosa, 96-well plate, 37° C., 10 h
[12] = Moraxella catarrhalis, 96-well plate, 37° C., 10 h
[13] = E. coli BL21, 96-well plate, 37° C., 10 h
[14] = Proteus vulgaris, 96-well plate, 37° C., 10 h
[15] = Aeromonas hydrophila, 96-well plate, 37° C., 10 h
[16] = Proteus mirabilis, 96-well plate, 37° C., 10 h
[17] = Klebsiella pneumonia, 96-well plate, 37° C., 10 h
[18] = Serratia marcescens, 96-well plate, 37° C., 10 h
[19] = Citrobacter diversus, 96-well plate, 37° C., 10 h
[20] = Enterobacter cloacae, 96-well plate, 37° C., 10 h

| Substance | MIC (μg/mL) P. aeruginosa (Pseudomonas aeruginosa; [1]) [µg/mL] | MIC (μg/mL) M. catarrhalis (Moraxella catarrhalis; [2]) [µg/mL] | MIC (μg/mL) E. coli BL21 (E. coli BL21; [3]) [µg/mL] | MIC (μg/mL) P. vulgaris (Proteus vulgaris; [4]) [µg/mL] | MIC (μg/mL) A. hydrophila (Aeromonas hydrophila; [5]) [µg/mL] | MIC (E. coli DH5α) [µg/mL] | MIC (μg/mL) P. mirabilis (Proteus mirabilis; [6]) [µg/mL] | MIC (μg/mL) K. pneumonia (Klebsiella pneumonia; [7]) [µg/mL] | MIC (μg/mL) S. marcescens (Serratia marcescens; [8]) [µg/mL] | MIC (μg/mL) C. diversus (Citrobacter diversus; [9]) [µg/mL] | MIC (μg/mL) E. cloacae (Enterobacter cloacae; [10]) [µg/mL] | other results |
| --- | --- | --- | --- | --- | --- | --- | --- | --- | --- | --- | --- | --- |
| PRT207 (RSSNCSAQCHNHGVCNHKQECHCHAGWAPPHCA; listed as Homo sapiens) | 12.5 | 50 | 50 | 25 | 50 | 12.5 | 12.5 | 50 | 50 | 12.5 | 12.5 |  |
| PRT81 (TCGPCNCDVSKGFDPDCNKTSGECHCKENHYRPPGSPTCL; listed as Homo sapiens) |  |  |  |  |  | 12.5 |  |  |  |  |  | MIC (μg/mL) P. aeruginosa (Pseudomonas aeruginosa; [11]): 12.5 µg/mL; MIC (μg/mL) M. catarrhalis (Moraxella catarrhalis; [12]): 50 µg/mL; MIC (μg/mL) E. coli BL21 (E. coli BL21; [13]): 12.5 µg/mL; MIC (μg/mL) P. vulgaris (Proteus vulgaris; [14]): 25 µg/mL; MIC (μg/mL) A. hydrophila (Aeromonas hydrophila; [15]): 25 µg/mL; MIC (μg/mL) P. mirabilis (Proteus mirabilis; [16]): 12.5 µg/mL; MIC (μg/mL) K. pneumonia (Klebsiella pneumonia; [17]): 25 µg/mL; MIC (μg/mL) S. marcescens (Serratia marcescens; [18]): 50 µg/mL; MIC (μg/mL) C. diversus (Citrobacter diversus; [19]): 12.5 µg/mL; MIC (μg/mL) E. cloacae (Enterobacter cloacae; [20]): 12.5 µg/mL |
| PRT169 (CIRYPGCLHGTCQQPWQCNCQEGWGGLFC; listed as Homo sapiens) | 50 | 25 | 12.5 | 25 | 25 | 50 | 50 | 100 | 12.5 | 12.5 | 50 |  |
| PRT544 (CDCGARLCDELTGQCICPPRTIPPDCLLCQPQTFGCHPLVGCEE; listed as Homo sapiens) |  |  |  |  |  | 12.5 |  |  |  |  |  | MIC against P. aeruginosa (Pseudomonas aeruginosa; 96-well plate, 37° C., 10 h): 12.5 µg/mL; MIC against M. catarrhalis (Moraxella catarrhalis; 96-well plate, 37° C., 10 h): 12.5 µg/mL; MIC against E. coli BL21 (E. coli BL21; 96-well plate, 37° C., 10 h): 25 µg/mL; MIC against P. vulgaris (Proteus vulgaris; 96-well plate, 37° C., 10 h): 12.5 µg/mL; MIC against A. hydrophila (Aeromonas hydrophila; 96-well plate, 37° C., 10 h): 12.5 µg/mL; MIC against P. mirabilis (Proteus mirabilis; 96-well plate, 37° C., 10 h): 12.5 µg/mL; MIC against K. pneumonia (Klebsiella pneumonia; 96-well plate, 37° C., 10 h): 25 µg/mL; MIC against S. marcescens (Serratia marcescens; 96-well plate, 37° C., 10 h): 12.5 µg/mL; MIC against C. diversus (Citrobacter diversus; 96-well plate, 37° C., 10 h): 12.5 µg/mL; MIC against E. cloacae (Enterobacter cloacae; 96-well plate, 37° C., 10 h): 12.5 µg/mL |
| PRT1257 (CMNKDHGCAHICRETPKGGVACDCRPGFDLAQNQKDC; listed as Homo sapiens) |  |  |  |  |  | 12.5 |  |  |  |  |  | MIC against P. aeruginosa (Pseudomonas aeruginosa; [11]): 25 µg/mL; MIC against M. catarrhalis (Moraxella catarrhalis; [12]): 12.5 µg/mL; MIC against E. coli BL21 (E. coli BL21; [13]): 50 µg/mL; MIC against P. vulgaris (Proteus vulgaris; [14]): 12.5 µg/mL; MIC against A. hydrophila (Aeromonas hydrophila; [15]): 25 µg/mL; MIC against P. mirabilis (Proteus mirabilis; [16]): 50 µg/mL; MIC against K. pneumonia (Klebsiella pneumonia; [17]): 12.5 µg/mL; MIC against S. marcescens (Serratia marcescens; [18]): 50 µg/mL; MIC against C. diversus (Citrobacter diversus; [19]): 50 µg/mL; MIC against E. cloacae (Enterobacter cloacae; [20]): 25 µg/mL |
| PRT236 (TKTSCAKCPPNASCVNNTHCTCNHGYTSGSGQKLFTFPLETCN; listed as Homo sapiens) | 100 | 25 | 12.5 | 25 | 25 | 12.5 | 12.5 | 12.5 | 12.5 | 12.5 | 12.5 |  |
| PRT830 (CALGNGGCQHHCVQLTITRHRCQCRPGFQLQEDGRHC; listed as Homo sapiens) | 12.5 | 12.5 | 12.5 | 12.5 | 12.5 | 12.5 | 25 | 12.5 | 12.5 | 25 | 25 |  |
| PRT470 (KCPQPCRNGGKCIGKSKCKCSKGYQGDLCS; listed as Homo sapiens) |  |  |  |  |  | 50 |  |  |  |  |  | MIC against P. aeruginosa (Pseudomonas aeruginosa; 96-well plate, 37° C., 10 h): 50 µg/mL; MIC against M. catarrhalis (Moraxella catarrhalis; 96-well plate, 37° C., 10 h): 25 µg/mL; MIC against E. coli BL21 (E. coli BL21; 96-well plate, 37° C., 10 h): 12.5 µg/mL; MIC against P. vulgaris (Proteus vulgaris; 96-well plate, 37° C., 10 h): 12.5 µg/mL; MIC against A. hydrophila (Aeromonas hydrophila; 96-well plate, 37° C., 10 h): 25 µg/mL; MIC against P. mirabilis (Proteus mirabilis; 96-well plate, 37° C., 10 h): 50 µg/mL; MIC against K. pneumonia (Klebsiella pneumonia; 96-well plate, 37° C., 10 h): 12.5 µg/mL; MIC against S. marcescens (Serratia marcescens; 96-well plate, 37° C., 10 h): 50 µg/mL; MIC against C. diversus (Citrobacter diversus; 96-well plate, 37° C., 10 h): 12.5 µg/mL; MIC against E. cloacae (Enterobacter cloacae; 96-well plate, 37° C., 10 h): 50 µg/mL |
| PRT261 (CAHGHGGCSPHANCTKVAPGQRTCTCQDGYMGDGELC; listed as Homo sapiens) | 12.5 | 50 | 12.5 | 12.5 | 12.5 | 12.5 | 25 | 12.5 | 50 | 25 | 50 |  |
| PRT833 (CEANNGGCSHGCSHTSAGPLCTCPRGYELDTDQRTC; listed as Homo sapiens) | 12.5 | 12.5 | 25 | 50 | 12.5 | 12.5 | 25 | 12.5 | 12.5 | 50 | 50 |  |
| PRT601 (CDCDIGGAYSNVCSPKNGQCECRPHVTGRSCSEPAPGYFFAPLNFYL; listed as Homo sapiens) |  |  |  |  |  | 50 |  |  |  |  |  | MIC P. aeruginosa (Pseudomonas aeruginosa; 96-well plate, 37° C., 10 h): 12.5 µg/mL; MIC M. catarrhalis (Moraxella catarrhalis; 96-well plate, 37° C., 10 h): 50 µg/mL; MIC E. coli BL21 (E. coli BL21; 96-well plate, 37° C., 10 h): 25 µg/mL; MIC P. vulgaris (Proteus vulgaris; 96-well plate, 37° C., 10 h): 50 µg/mL; MIC A. hydrophila (Aeromonas hydrophila; 96-well plate, 37° C., 10 h): 25 µg/mL; MIC P. mirabilis (Proteus mirabilis; 96-well plate, 37° C., 10 h): 100 µg/mL; MIC K. pneumonia (Klebsiella pneumonia; 96-well plate, 37° C., 10 h): 25 µg/mL; MIC S. marcescens (Serratia marcescens; 96-well plate, 37° C., 10 h): 12.5 µg/mL; MIC C. diversus (Citrobacter diversus; 96-well plate, 37° C., 10 h): 12.5 µg/mL; MIC E. cloacae (Enterobacter cloacae; 96-well plate, 37° C., 10 h): 50 µg/mL |
